Experimental data taken from the supplement of paper PMC10307832.

Tests used:
Experiment in all cases: relative viability (nuclei count vs DMSO), 5 days (fraction); higher = more cells survive
AZD8055 + Trametinib = compound: COc1ccc(-c2ccc3c(N4CCOC[C@@H]4C)nc(N4CCOC[C@@H]4C)nc3n2)cc1CO [AZD8055] + CC(=O)Nc1cccc(-n2c(=O)n(C3CC3)c(=O)c3c(Nc4ccc(I)cc4F)n(C)c(=O)c(C)c32)c1 [Trametinib] (partner 0.02 µM)
In short: (§1)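 Relative viability is defined as nuclei in treated wells over nuclei in vehicle wells. Duplicate plates were run and medians reported. Lung cancer cell lines in 1536-well plates were dosed by pin tool one day after seeding, with one drug or with a fixed anchor-drug dose plus five library-drug doses (not always all listed) in √10 steps, and nuclei were counted after 5 days.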

AZD8055 + Lapatinib = compound: COc1ccc(-c2ccc3c(N4CCOC[C@@H]4C)nc(N4CCOC[C@@H]4C)nc3n2)cc1CO [AZD8055] + CS(=O)(=O)CCNCc1ccc(-c2ccc3ncnc(Nc4ccc(OCc5cccc(F)c5)c(Cl)c4)c3c2)o1 [Lapatinib] (partner 2 µM)
In short: as §1

AZD8055 + Phenformin = compound: COc1ccc(-c2ccc3c(N4CCOC[C@@H]4C)nc(N4CCOC[C@@H]4C)nc3n2)cc1CO [AZD8055] + N=C(N)NC(=N)NCCc1ccccc1 [Phenformin] (partner 250 µM)
In short: as §1

AZD8055 + Olaparib = compound: COc1ccc(-c2ccc3c(N4CCOC[C@@H]4C)nc(N4CCOC[C@@H]4C)nc3n2)cc1CO [AZD8055] + O=C(c1cc(Cc2n[nH]c(=O)c3ccccc23)ccc1F)N1CCN(C(=O)C2CC2)CC1 [Olaparib] (partner 8 µM)
In short: as §1

Cell Line | relative viability (AZD8055 + Trametinib; first compound 0.01 µM) | relative viability (AZD8055 + Trametinib; first compound 0.03162 µM) | relative viability (AZD8055 + Trametinib; first compound 0.1 µM) | relative viability (AZD8055 + Trametinib; first compound 0.3162 µM) | relative viability (AZD8055 + Trametinib; first compound 1 µM) | relative viability (AZD8055 + Lapatinib; first compound 0.01 µM) | relative viability (AZD8055 + Lapatinib; first compound 0.03162 µM) | relative viability (AZD8055 + Lapatinib; first compound 0.1 µM) | relative viability (AZD8055 + Lapatinib; first compound 0.3162 µM) | relative viability (AZD8055 + Lapatinib; first compound 1 µM) | relative viability (AZD8055 + Phenformin; first compound 0.01 µM) | relative viability (AZD8055 + Phenformin; first compound 0.03162 µM) | relative viability (AZD8055 + Phenformin; first compound 0.1 µM) | relative viability (AZD8055 + Phenformin; first compound 0.3162 µM) | relative viability (AZD8055 + Phenformin; first compound 1 µM) | relative viability (AZD8055 + Olaparib; first compound 0.01 µM) | relative viability (AZD8055 + Olaparib; first compound 0.03162 µM) | relative viability (AZD8055 + Olaparib; first compound 0.1 µM) | relative viability (AZD8055 + Olaparib; first compound 0.3162 µM) | relative viability (AZD8055 + Olaparib; first compound 1 µM)
COR-L 105 | 0.416 | 0.412 | 0.44 | 0.404 | 0.416 | 0.353 | 0.284 | 0.318 | 0.346 | 0.389 | 0.506 | 0.529 | 0.35 | 0.278 | 0.275 | 0.738 | 0.741 | 0.707 | 0.455 | 0.448
LK-2 | 0.68 | 0.575 | 0.509 | 0.238 | 0.199 | 0.801 | 0.55 | 0.47 | 0.198 | 0.17 | 0.234 | 0.186 | 0.118 | 0.198 | 0.239 | 0.769 | 0.436 | 0.379 | 0.144 | 0.171
NCI-H727 | 0.352 | 0.399 | 0.368 | 0.37 | 0.458 | 0.807 | 0.818 | 0.685 | 0.378 | 0.308 | 0.542 | 0.38 | 0.584 | 0.33 | 0.327 | 0.818 | 0.812 | 0.744 | 0.603 | 0.52
RERF-LC-KJ | 0.871 | 0.816 | 0.649 | 0.378 | 0.38 | 0.895 | 0.726 | 0.637 | 0.437 | 0.345 | 0.374 | 0.378 | 0.383 | 0.303 | 0.303 | 0.963 | 1.08 | 0.669 | 0.429 | 0.404
NCI-H2023 | 0.454 | 0.43 | 0.187 | 0.152 | 0.122 | 0.971 | 0.611 | 0.361 | 0.148 | 0.132 | 0.463 | 0.326 | 0.293 | 0.138 | 0.13 | 0.434 | 0.402 | 0.224 | 0.148 | 0.142
NCI-H322M | 0.522 | 0.467 | 0.486 | 0.481 | 0.398 | 0.536 | 0.551 | 0.51 | 0.5 | 0.466 | 0.726 | 0.704 | 0.662 | 0.501 | 0.502 | 0.806 | 0.847 | 0.734 | 0.731 | 0.474
NCI-H1666 | 0.887 | 0.877 | 0.877 | 0.797 | 0.793 | 0.587 | 0.488 | 0.488 | 0.355 | 0.362 | 0.619 | 0.553 | 0.584 | 0.542 | 0.488 | 0.875 | 0.81 | 0.771 | 0.714 | 0.674
NCI-H1648 | 0.396 | 0.446 | 0.342 | 0.316 | 0.209 | – | – | – | – | – | – | – | – | – | – | 0.658 | 0.739 | 0.561 | 0.239 | 0.287
NCI-H2087 | 0.248 | 0.166 | 0.169 | 0.153 | 0.116 | 1.01 | 0.932 | 0.826 | 0.581 | 0.435 | 0.555 | 0.41 | 0.422 | 0.242 | 0.232 | 0.625 | 0.519 | 0.451 | 0.263 | 0.217
